What was measured:
[1] = test system: MDA-MB-436 cells; test: Inhibition of proliferation of human breast cancer MDA-MB-436 cell line (CCK-8, 7 days); format: cell-based; details: Homo sapiens, 168 h, proliferation of MDA-MB-436, 7 days
Method in brief: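 Cells seeded at 3000/well were treated next day with 8 serial doses (DMSO control) for 7 days at 37° C., 5% CO2, with compound medium changed on day four. CCK-8 was added for 4 hours and OD read as 450 nm minus 650 nm. IC50 came from a sigmoidal fit of survival relative to DMSO.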

[2] = target: PARP1 (Homo sapiens, UniProt P09874); test: PARP1 chemiluminescent assay; format: biochemical; details: recombinant PARP1 enzyme activity, chemiluminescence
Procedure: (§1) Mix the solution of recombinant poly ADP ribotransferase 1 and 2 (PARP1 and PARP2) (40 ng enzyme/well) and the compounds to be tested, respectively. And then added to a 96-well plate coated with […] mixture, incubated at room temperature for 1 h. Then add 50 μL 0.3 ng/mL Streptavidin-HRP to each well. The plates were incubated for 30 minutes at room temperature. Finally, the plates were treated with streptavidin-HRP followed by addition of the ELISA ECL substrate to produce chemiluminescence that can then be measured using a chemiluminescence reader. The inhibition rate of the compound to PARP1/2 enzyme activity was calculated according to the following formula. [formula] IC50 value is obtained by fitting the s-shaped dose response curve equation by using XL Fit software. The curve equation is Y=100/(1+10^(log C−log IC50)), C is the compound concentration. Table 1 summarizes the inhibitory effects of compounds on PARP1 and PARP2 enzyme activity (IC50), wherein +++++ indicates IC50≤1 nM; ++++ indicates 1<IC50≤10 nM; +++ indicates 10 nM<IC50≤100 nM: ++ indicates 100 nM<IC50≤1 μM; + indicates IC50>1 μM.

[3] = target: PARP2 (Homo sapiens, UniProt Q9UGN5); test: PARP2 chemiluminescent assay; format: biochemical; details: recombinant PARP2 enzyme activity, chemiluminescence
Procedure: as §1

PARP2, sequence (Q9UGN5 whole entry, species assumed): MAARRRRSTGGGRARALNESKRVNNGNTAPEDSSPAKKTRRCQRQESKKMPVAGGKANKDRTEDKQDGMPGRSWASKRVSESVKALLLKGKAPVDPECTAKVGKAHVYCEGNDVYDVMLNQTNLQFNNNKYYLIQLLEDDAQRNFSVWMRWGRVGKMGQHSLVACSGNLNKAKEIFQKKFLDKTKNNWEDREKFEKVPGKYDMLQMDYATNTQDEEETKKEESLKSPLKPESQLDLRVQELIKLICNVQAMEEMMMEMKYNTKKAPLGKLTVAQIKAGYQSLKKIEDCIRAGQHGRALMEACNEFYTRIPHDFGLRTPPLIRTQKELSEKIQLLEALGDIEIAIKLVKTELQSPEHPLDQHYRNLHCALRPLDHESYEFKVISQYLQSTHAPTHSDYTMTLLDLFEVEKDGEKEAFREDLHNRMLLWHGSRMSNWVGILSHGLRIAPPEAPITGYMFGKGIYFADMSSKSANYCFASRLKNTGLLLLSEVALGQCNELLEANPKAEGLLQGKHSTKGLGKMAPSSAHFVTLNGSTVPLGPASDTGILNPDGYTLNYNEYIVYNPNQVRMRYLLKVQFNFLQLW
PARP1, sequence (P09874 whole entry): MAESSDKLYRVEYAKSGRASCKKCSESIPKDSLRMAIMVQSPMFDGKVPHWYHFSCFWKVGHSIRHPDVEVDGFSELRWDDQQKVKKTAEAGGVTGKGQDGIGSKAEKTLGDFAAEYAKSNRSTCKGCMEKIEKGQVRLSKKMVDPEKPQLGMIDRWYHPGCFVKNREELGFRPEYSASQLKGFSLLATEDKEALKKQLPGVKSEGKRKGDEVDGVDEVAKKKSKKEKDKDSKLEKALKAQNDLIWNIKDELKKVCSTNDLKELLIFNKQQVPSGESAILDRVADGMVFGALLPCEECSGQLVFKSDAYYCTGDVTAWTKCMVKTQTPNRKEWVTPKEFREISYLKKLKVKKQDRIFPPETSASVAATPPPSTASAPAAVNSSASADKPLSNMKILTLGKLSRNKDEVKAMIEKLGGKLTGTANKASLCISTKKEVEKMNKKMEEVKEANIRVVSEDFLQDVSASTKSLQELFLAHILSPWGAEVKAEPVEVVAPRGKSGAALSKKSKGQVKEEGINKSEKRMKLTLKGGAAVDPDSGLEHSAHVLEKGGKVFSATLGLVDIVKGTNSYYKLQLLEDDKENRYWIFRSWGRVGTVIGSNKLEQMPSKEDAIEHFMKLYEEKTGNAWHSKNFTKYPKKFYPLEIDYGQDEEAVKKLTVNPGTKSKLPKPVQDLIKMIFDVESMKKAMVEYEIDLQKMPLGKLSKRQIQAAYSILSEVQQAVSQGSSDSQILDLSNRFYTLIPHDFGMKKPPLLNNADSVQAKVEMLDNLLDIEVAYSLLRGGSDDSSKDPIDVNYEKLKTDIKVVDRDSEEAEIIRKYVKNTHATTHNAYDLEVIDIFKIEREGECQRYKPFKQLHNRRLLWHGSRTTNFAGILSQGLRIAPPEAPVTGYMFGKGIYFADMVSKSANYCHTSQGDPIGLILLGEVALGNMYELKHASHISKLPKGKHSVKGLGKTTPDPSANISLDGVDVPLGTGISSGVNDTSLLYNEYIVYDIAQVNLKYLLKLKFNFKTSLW

Structure (SMILES) | IC50 [1] | IC50 [2] | IC50 [3]
CCn1c(=O)[nH]c2c(F)c(CN3CCN(c4ccc(C(=O)NC)nc4F)CC3)ccc2c1=O [Example 24, 5-(4-((3-ethyl-8-fluoro-2,4-dioxo-1,2,3,4-tetrahydroquinazolin-7-yl)methyl)piperazin-1-yl)-6-fluoro-N-methylpicolinamide] | 10 to 100 nM | 10 to 100 nM | > 1000 nM
CCn1c(=O)[nH]c2cc(CN3CCN(c4ccc(C(=O)NC)nc4F)CC3)cc(F)c2c1=O [Example 25, 5-(4-((3-ethyl-5-fluoro-2,4-dioxo-1,2,3,4-tetrahydroquinazolin-7-yl)methyl)piperazin-1-yl)-6-fluoro-N-methylpicolinamide] | 1 to 10 nM | 1 to 10 nM | 100 to 1000 nM
CNC(=O)c1ccc(N2CCN(Cc3ccc4c(=O)n(C(C)C)c(=O)[nH]c4c3)CC2)c(F)n1 [Example 26, 5-(4-((3-isopropyl-2,4-dioxo-1,2,3,4-tetrahydroquinazolin-7-yl)methyl)piperazin-1-yl)-6-fluoro-N-methylpicolinamide] | 100 to 1000 nM | 1 to 10 nM | > 1000 nM
CCn1c(=O)[nH]c2cc(CN3CCN(c4cnc(C(=O)NC)nc4)CC3)ccc2c1=O [Example 27] | > 1000 nM | 1 to 10 nM | 100 to 1000 nM
CCn1c(=O)[nH]c2cc(CN3CCN(c4ccc(C(=O)NC)cn4)CC3)ccc2c1=O [Example 28, 6-(4-((3-ethyl-2,4-dioxo-1,2,3,4-tetrahydroquinazolin-7-yl)methyl)piperazin-1-yl)-N-methylnicotinamide] | > 1000 nM | 1 to 10 nM | 100 to 1000 nM
CCn1c(=O)[nH]c2cc(CN3CCN(c4ccc(C(=O)NC)nn4)CC3)ccc2c1=O [Example 29, 6-(4-((3-ethyl-2,4-dioxo-1,2,3,4-tetrahydroquinazolin-7-yl)methyl)piperazin-1-yl)-N-methylpyridazine-3-carboxamide] | > 1000 nM | 1 to 10 nM | 100 to 1000 nM
CCn1c(=O)[nH]c2cc(CN3CCN(c4ncc(C(=O)NC)cn4)CC3)ccc2c1=O [Example 30, 2-(4-((3-ethyl-2,4-dioxo-1,2,3,4-tetrahydroquinazolin-7-yl)methyl)piperazin-1-yl)-N-methylpyrimidine-5-carboxamide] | > 1000 nM | 10 to 100 nM | 10 to 100 nM
CCc1nc(C(=O)NC)ccc1N1CCN(Cc2ccc3c(=O)n(CC)c(=O)[nH]c3c2)CC1 [Example 31, 5-(4-((3-ethyl-2,4-dioxo-1,2,3,4-tetrahydroquinazolin-7-yl)methyl)piperazin-1-yl)-6-ethyl-N-methylpicolinamide] | 100 to 1000 nM | ≤ 1 nM | > 1000 nM
CCn1c(=O)[nH]c2cc(CN3CCN(c4ccc(C(N)=O)nc4F)CC3)ccc2c1=O [Example 32, 5-(4-((3-ethyl-2,4-dioxo-1,2,3,4-tetrahydroquinazolin-7-yl)methyl)piperazin-1-yl)-6-fluoropicolinamide] | 10 to 100 nM | 1 to 10 nM | 100 to 1000 nM
CCNC(=O)c1ccc(N2CCN(Cc3ccc4c(=O)n(CC)c(=O)[nH]c4c3)CC2)c(F)n1 [Example 33, 5-(4-((3-ethyl-2,4-dioxo-1,2,3,4-tetrahydroquinazolin-7-yl)methyl)piperazin-1-yl)-6-fluoro-N-ethylpicolinamide] | 1 to 10 nM | 1 to 10 nM | 100 to 1000 nM
CCn1c(=O)[nH]c2cc(CN3CCN(c4ccc(C(=O)NC(C)C)nc4F)CC3)ccc2c1=O [Example 34, 5-(4-((3-ethyl-2,4-dioxo-1,2,3,4-tetrahydroquinazolin-7-yl)methyl)piperazin-1-yl)-6-fluoro-N-isopropylpicolinamide] | 10 to 100 nM | 1 to 10 nM | 100 to 1000 nM
CNC(=O)c1ccc(NC(=O)c2cccc(-c3ccc4c(=O)n(C)c(=O)[nH]c4c3)c2)cn1 [Example 40, 5-(3-(3-methyl-2,4-dioxo-1,2,3,4-tetrahydroquinazolin-7-yl)benzamido)N-methylpicolinamide] | > 1000 nM | 1 to 10 nM | > 1000 nM
CCn1c(=O)[nH]c2cc(-c3cccc(C(=O)Nc4ccc(C(=O)NC)nc4)c3)ccc2c1=O [Example 41, 5-(3-(3-ethyl-2,4-dioxo-1,2,3,4-tetrahydroquinazolin-7-yl)benzamido)-N-methylpicolinamide] | > 1000 nM | 1 to 10 nM | > 1000 nM
CNC(=O)c1ccc(NC(=O)c2cccc(-c3ccc4c(=O)n(C(C)C)c(=O)[nH]c4c3)c2)cn1 [Example 42, 5-(3-(3-isopropyl-2,4 dioxo-1,2,3,4-tetrahydroquinazolin-7-yl)benzamido)-N-methylpicolinamide] | > 1000 nM | 1 to 10 nM | > 1000 nM
CCCn1c(=O)[nH]c2cc(-c3cccc(C(=O)Nc4ccc(C(=O)NC)nc4)c3)ccc2c1=O [Example 47, 5-(3-(3-propyl-2,4-dioxo-1,2,3,4-tetrahydroquinazolin-7-yl)benzamido)-N-methylpicolinamide] | > 1000 nM | 10 to 100 nM | > 1000 nM
CCn1c(=O)[nH]c2cc(CN3CCN(c4ccc(C(=O)NC)nc4Cl)CC3)c(F)cc2c1=O [Example 61, 6-chloro-5-(4-((3-ethyl-6-fluoro-2,4-dioxo-1,2,3,4-tetrahydroquinazolin-7-yl)methyl)piperazin-1-yl)-N-methylpicolinamide] | 10 to 100 nM | 1 to 10 nM | > 1000 nM
CCn1c(=O)[nH]c2cc(CN3CCN(c4ccc(C(=O)NC)nc4Cl)CC3)cc(F)c2c1=O [Example 62, 6-chloro-5-(4-((3-ethyl-5-fluoro-2,4-dioxo-1,2,3,4-tetrahydroquinazolin-7-yl)methyl)piperazin-1-yl)-N-methylpicolinamide] | 10 to 100 nM | 1 to 10 nM | 100 to 1000 nM
CCn1c(=O)[nH]c2cc(CN3CCN(c4ccc(C(=O)NC)nc4Cl)CC3)cc(Cl)c2c1=O [Example 63, 6-chloro-5-(4-((5-chloro-3-ethyl-2,4-dioxo-1,2,3,4-tetrahydroquinazolin-7-yl)methyl)piperazin-1-yl)-N-methylpicolinamide] | 1 to 10 nM | 1 to 10 nM | 100 to 1000 nM
CCn1c(=O)[nH]c2cc(CN3CCN(c4ccc(C(=O)NC)nc4C)CC3)c(F)cc2c1=O [Example 67, 5-(4-((3-ethyl-6-fluoro-2,4-dioxo-1,2,3,4-tetrahydroquinazolin-7-yl)methyl)piperazin-1-yl)-N,6-dimethylpicolinamide] | 100 to 1000 nM | 10 to 100 nM | > 1000 nM
CCn1c(=O)[nH]c2cc(CN3CCN(c4ccc(C(=O)NC5CC5)nc4C)CC3)ccc2c1=O [Example 78, N-cyclopropyl-5-(4-((3-ethyl-2,4-dioxo-1,2,3,4-tetrahydroquinazolin-7-yl)methyl)piperazin-1-yl)-6-methylpicolinamide] | 10 to 100 nM | 1 to 10 nM | > 1000 nM
CCNC(=O)c1ccc(N2CCN(Cc3ccc4c(=O)n(CC)c(=O)[nH]c4c3)CC2)c(Cl)n1 [Example 83, 6-chloro-N-ethyl-5-(4-((3-ethyl-2,4-dioxo-1,2,3,4-tetrahydroquinazolin-7-yl)methyl)piperazin-1-yl)picolinamide] | 10 to 100 nM | 1 to 10 nM | 100 to 1000 nM
CCNC(=O)c1ccc(N2CCN(Cc3ccc4c(=O)n(CC)c(=O)[nH]c4c3)CC2)c(C)n1 [Example 84, N-ethyl-5-(4-((3-ethyl-2,4-dioxo-1,2,3,4-tetrahydroquinazolin-7-yl)methyl)piperazin-1-yl)-6-methylpicolinamide] | 10 to 100 nM | 1 to 10 nM | > 1000 nM
CCNC(=O)c1ccc(N2CCN(Cc3cc(F)c4c(=O)n(CC)c(=O)[nH]c4c3)CC2)c(Cl)n1 [Example 104, 6-chloro-N-ethyl-5-(4-((3-ethyl-5-fluoro-2,4-dioxo-1,2,3,4-tetrahydroquinazolin-7-yl)methyl)piperazin-1-yl)picolinamide] | 1 to 10 nM | 1 to 10 nM | > 1000 nM
CCN1Cc2ccc(CN3CCN(c4ccc(C(=O)NC)nc4F)CC3)cc2NC1=O [Example 114, 5-(4-((3-ethyl-2-oxo-1,2,3,4-tetrahydroquinazolin-7-yl)methyl)piperazin-1-yl)-6-fluoro-N-methylpicolinamide] | 10 to 100 nM | 1 to 10 nM | > 1000 nM
CCN1Cc2ccc(CN3CCN(c4ccc(C(=O)NC)nc4Cl)CC3)cc2NC1=O [Example 115] | 1 to 10 nM | 1 to 10 nM | > 1000 nM
CCN1Cc2ccc(CN3CCN(c4ccc(C(=O)NC)nc4C)CC3)cc2NC1=O [Example 116] | 10 to 100 nM | 1 to 10 nM | > 1000 nM
CCNC(=O)c1ccc(N2CCN(Cc3ccc4c(c3)NC(=O)N(CC)C4)CC2)c(C)n1 [Example 117, 5-(4-((3-ethyl-2-oxo-1,2,3,4-tetrahydroquinazolin-7-yl)methyl)piperazin-1-yl)-6-methyl-N-ethylpicolinamide] | 1 to 10 nM | 1 to 10 nM | > 1000 nM
